Data from patent publication US20030224978A1, “Compounds and methods for modulating apoptosis” (McGill University, priority 1996, published 2003).

How the values were obtained:
MDA-MB231 = format: cell-based, human; conditions: 3 h
N-cadherin = target: T1, N-cadherin (Gallus gallus, UniProt P10288); experiment: Neurite outgrowth of mouse cerebellar neurons on 3T3 cells expressing N-cadherin (Example 2); format: cell-based
T1 construct: expressed in transfected cells; host or cells: 3T3 fibroblasts
T1 sequence (P10288 165-912): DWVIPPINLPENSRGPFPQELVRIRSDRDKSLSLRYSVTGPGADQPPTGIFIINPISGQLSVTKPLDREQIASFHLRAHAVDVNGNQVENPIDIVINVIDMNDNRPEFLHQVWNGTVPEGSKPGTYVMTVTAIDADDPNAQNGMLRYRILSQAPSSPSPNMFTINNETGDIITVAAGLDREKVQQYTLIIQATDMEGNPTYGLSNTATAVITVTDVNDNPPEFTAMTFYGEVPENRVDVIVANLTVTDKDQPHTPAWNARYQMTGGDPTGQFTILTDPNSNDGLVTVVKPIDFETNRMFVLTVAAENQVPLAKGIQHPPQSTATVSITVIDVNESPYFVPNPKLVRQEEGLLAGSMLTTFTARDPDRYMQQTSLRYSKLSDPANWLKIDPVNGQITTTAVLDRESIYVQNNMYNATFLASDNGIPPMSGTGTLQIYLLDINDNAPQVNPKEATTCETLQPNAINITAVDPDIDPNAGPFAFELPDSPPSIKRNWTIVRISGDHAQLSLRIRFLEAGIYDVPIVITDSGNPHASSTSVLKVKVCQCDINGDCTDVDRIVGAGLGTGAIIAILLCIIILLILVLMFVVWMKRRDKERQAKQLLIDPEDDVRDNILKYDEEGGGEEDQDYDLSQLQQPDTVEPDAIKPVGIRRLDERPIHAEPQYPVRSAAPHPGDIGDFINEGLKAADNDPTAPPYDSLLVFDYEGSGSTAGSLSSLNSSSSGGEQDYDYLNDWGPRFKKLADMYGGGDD
From the text: Within a representative neurite outgrowth assay, neurons may be cultured on a monolayer of cells (e.g., 3T3) that express N-cadherin. […] For example, neurons may be cultured on monolayers of 3T3 cells transfected with cDNA encoding N-cadherin essentially as described by Doherty and Walsh, Curr. Op. Neurobiol. 4:49-55, 1994; Williams et al., Neuron 13:583-594, 1994; Hall et al., Cell Adhesion and Commun. 3:441-450, 1996; Doherty and Walsh, Mol. Cell. Neurosci. 8:99-111, 1994; and Safell et al., Neuron 18:231-242, 1997. Briefly, monolayers of control 3T3 fibroblasts and 3T3 fibroblasts that express N-cadherin may be established by overnight culture of 80,000 cells in individual wells of an 8-chamber well tissue culture slide. 3000 cerebellar neurons isolated from post-natal day 3 mouse brains may be cultured for 18 hours on the various monolayers in control media (SATO/2%FCS), or media supplemented with various concentrations of the modulating agent or control peptide. The cultures may then be fixed and stained for GAP43 which specifically binds to the neurons and their neurites. The length of the longest neurite on each GAP43 positive neuron may be measured by computer assisted morphometry.
A modulating agent that modulates N-cadherin-mediated cell adhesion may inhibit or enhance such neurite outgrowth. Under the conditions described above, the presence of 500 μg/mL of a modulating agent that disrupts neural cell adhesion should result in a decrease in the mean neurite length by at least 50%, relative to the length in the absence of modulating agent or in the presence of a negative control peptide. Alternatively, the presence of 500 μg/mL of a modulating agent that enhances neural cell adhesion should result in an increase in the mean neurite length by at least 50%.
Neurons were cultured on monolayers of 3T3 cells transfected with cDNA encoding N-cadherin essentially as described by Doherty and Walsh, Curr. Op. Neurobiol. […] The length of the longest neurite on each GAP43 positive neuron was then measured by computer assisted morphometry.

In the case of `CC(=O)N[C@H]1CSSC[C@@H](C(N)=O)NC(=O)[C@H](C(C)C)NC(=O)[C@H](C)NC(=O)[C@H](Cc2c[nH]cn2)NC1=O` [N-Ac-CHAVC-NH2, N-Ac-Cys-His-Ala-Val-Cys-NH2], the IC50 (MDA-MB231) is reported as greater than 100 µM, the “effect on neurite outgrowth on 3T3 cells expressing N-cadherin” value (from here on “effect on neurite outgrowth”) (N-cadherin; 50 μg/mL, dose-response study) is reported as “significantly inhibited neurite outgrowth” and the “effect on neurite outgrowth” value (N-cadherin; 500 μg/mL, 18 hours) is reported as “completely inhibited neurite outgrowth”.
In the case of `CC(=O)N[C@H]1CSSC[C@@H](C(N)=O)NC(=O)[C@H](C(C)C)NC(=O)CNC(=O)[C@H](Cc2c[nH]cn2)NC1=O` [N-Ac-CHGVC-NH2, reference compound], the IC50 (MDA-MB231) is reported as greater than 100 µM and the “effect on neurite outgrowth” value (N-cadherin; 500 μg/mL, 18 hours) is reported as “had no effect”.
